Each structure is given as a SMILES string.

From US20220324835A1 (Nurix Therapeutics, Inc., priority 2018, published 2022) come the findings set out here.

Assay [1] concerns T-cell. The assay is described as follows: IL-2 secretion from T-cells stimulated with anti-CD3 antibody alone (Biological Example 2). In kind it is cell-based, human. The note with it: T-cell; for fold induction at 8 µM: 8 μM Cbl-b inhibitor.
Assay [2] concerns T-cell. The assay is described as follows: CD25 cell surface staining on T-cells stimulated with anti-CD3 antibody alone (Biological Example 2). The note with it: T-cell; for fold induction at 8 µM: 8 μM Cbl-b inhibitor. The class given is cell-based, human.
The test system of assay [3] is T-cell. The assay is described as follows: IL-2 secretion from T-cells co-stimulated with anti-CD3 and anti-CD28 antibody (Biological Example 2). In kind it is cell-based, human. Particulars: Homo sapiens, T-cell; for fold induction at 4 µM: 4 μM Cbl-b inhibitor. In short, it runs like this:
(§1)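 T-cells were stimulated with anti-CD3 antibody alone or with anti-CD28 antibody, in the presence or absence of Cbl-b inhibitor. IL-2 secretion or CD25 surface staining was measured, and values expressed as fold over the uninhibited baseline […].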

Assay [4] concerns the target Cbl-b (Homo sapiens, UniProt Q13191). The assay is described as follows: Cbl-b inhibition assay (Cbl-b activity assay, FRET, Biological Example 1; 100 mM NaCl, 60 nM Src kinase). The class given is biochemical. Particulars: upper bound stated in text lists; read-out: IC50 values in the Cbl-b inhibition assay of Biological Example 1. Put shortly: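 Binding-based Cbl-b activity assay. Src-phosphorylated, N-terminally biotin-Avi-tagged Cbl-b recruits labelled UbcH5B-Ub, and proximity to streptavidin-terbium yields FRET.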

Assay [5] deals with T-cell. The assay is described as follows: CD25 cell surface staining on T-cells co-stimulated with anti-CD3 and anti-CD28 antibody (Biological Example 2). The class given is cell-based, human. Particulars: Homo sapiens, T-cell; for fold induction at 4 µM: 4 μM Cbl-b inhibitor. Put shortly: as §1
Where [6] appears, read: fold change over baseline, 1 μM Cbl-b inhibitor, primary human total T-cells, read-out: IL-2 secretion Anti-CD3 stimulation.
The mark [7] stands for this setting: fold change over baseline, primary human total T-cells, read-out: IL-2 secretion Anti-CD3 stimulation.
Where [8] appears, read: fold change over baseline, 1 μM Cbl-b inhibitor, primary human total T-cells, read-out: CD25 staining Anti-CD3 stimulation.
The mark [9] stands for this setting: fold change over baseline, primary human total T-cells, read-out: CD25 staining Anti-CD3 stimulation.
The mark [10] stands for this setting: fold change over baseline, 0.3 μM Cbl-b inhibitor, primary human total T-cells, read-out: IL-2 secretion Anti-CD3/Anti-CD28 stimulation.
Setting [11] is: fold change over baseline, 1 μM Cbl-b inhibitor, primary human total T-cells, read-out: IL-2 secretion Anti-CD3/Anti-CD28 stimulation.
[12] abbreviates: fold change over baseline, primary human total T-cells, read-out: IL-2 secretion Anti-CD3/Anti-CD28 stimulation.
[13] abbreviates: fold change over baseline, 0.3 μM Cbl-b inhibitor, primary human total T-cells, read-out: CD25 staining Anti-CD3/Anti-CD28 stimulation.
The mark [14] stands for this setting: fold change over baseline, 1 μM Cbl-b inhibitor, primary human total T-cells, read-out: CD25 staining Anti-CD3/Anti-CD28 stimulation.
Setting [15] is: fold change over baseline, primary human total T-cells, read-out: CD25 staining Anti-CD3/Anti-CD28 stimulation.
[16] abbreviates: read-out: IL-2 secretion, Anti-CD3/Anti-CD28 stimulation, fold change over baseline.
Where [17] appears, read: read-out: CD25 staining, Anti-CD3/Anti-CD28 stimulation, fold change over baseline.
[18] abbreviates: Homo sapiens, 1 μM Cbl-b inhibitor, fold change over baseline (anti-CD3/anti-CD28 stimulated T-cells without inhibitor), read-out: IL-2 secretion Anti-CD3 stimulation.
[19] abbreviates: Homo sapiens, 1 μM Cbl-b inhibitor, fold change over baseline (anti-CD3/anti-CD28 stimulated T-cells without inhibitor), read-out: CD25 staining Anti-CD3 stimulation.
Where [20] appears, read: 0.3 μM Cbl-b inhibitor, fold change over baseline (anti-CD3/anti-CD28 stimulated T-cells without inhibitor), read-out: IL-2 secretion Anti-CD3/Anti-CD28 stimulation.
The mark [21] stands for this setting: 1 μM Cbl-b inhibitor, fold change over baseline (anti-CD3/anti-CD28 stimulated T-cells without inhibitor), read-out: IL-2 secretion Anti-CD3/Anti-CD28 stimulation.
The mark [22] stands for this setting: 0.3 μM Cbl-b inhibitor, fold change over baseline (anti-CD3/anti-CD28 stimulated T-cells without inhibitor), read-out: CD25 staining Anti-CD3/Anti-CD28 stimulation.
Where [23] appears, read: 1 μM Cbl-b inhibitor, fold change over baseline (anti-CD3/anti-CD28 stimulated T-cells without inhibitor), read-out: CD25 staining Anti-CD3/Anti-CD28 stimulation.

Cbl-b, sequence (Q13191 36-427): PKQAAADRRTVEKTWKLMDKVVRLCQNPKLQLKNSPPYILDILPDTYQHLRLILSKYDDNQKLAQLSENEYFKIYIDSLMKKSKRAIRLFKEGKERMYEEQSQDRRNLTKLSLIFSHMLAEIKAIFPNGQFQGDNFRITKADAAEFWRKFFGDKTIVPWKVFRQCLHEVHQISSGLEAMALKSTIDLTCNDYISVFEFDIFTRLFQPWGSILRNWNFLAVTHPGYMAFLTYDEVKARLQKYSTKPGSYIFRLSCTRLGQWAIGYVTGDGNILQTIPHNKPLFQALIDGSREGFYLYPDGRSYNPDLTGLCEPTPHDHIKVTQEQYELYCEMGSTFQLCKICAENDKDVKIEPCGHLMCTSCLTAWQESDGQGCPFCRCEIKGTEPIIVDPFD

In general, IC50 refers to the point on the concentration scale where inhibition reaches its midpoint. For `C[C@H](Cc1nncn1C)c1cc(NC2COC2)nc(N2Cc3c(cccc3C(F)(F)F)C2=O)c1` [Compound 352, 2-{4-[(2R)-1-(4-methyl-4H-1,2,4-triazol-3-yl)propan-2-yl]-6-[(oxetan-3-yl)amino]pyridin-2-yl}-4-(trifluoromethyl)-2,3-dihydro-1H-isoindol-1-one], the fold induction at 1 µM was 0.051 to 0.1 in assay [1] (setting [6]), 0.801 to 1 in assay [2] (setting [8]), 1.01 to 2.5 in assay [3] (setting [11]) and 1.01 to 1.3 in assay [5] (setting [14]). Besides, the fold induction at 8 µM in assay [1] (setting [7]) was > 0.201; in assay [2] (setting [9]), > 1. Besides, the fold induction at 0.3 µM in assay [3] (setting [10]) lay within 1.01 to 2.5; in assay [5] (setting [13]), 1.01 to 1.3. Also, the fold induction at 4 µM was 5 to 7.5 in assay [3] (setting [12]) and 1.31 to 1.5 in assay [5] (setting [15]). In addition, the IC50 in assay [4] is ≤ 100 nM.

As for `CC(C)Nc1cc([C@H](C)Cc2nncn2C)cc(N2Cc3c(cccc3C(F)(F)F)C2=O)n1` [Compound 353, 2-{4-[(2R)-1-(4-methyl-4H-1,2,4-triazol-3-yl)propan-2-yl]-6-[(propan-2-yl)amino]pyridin-2-yl}-4-(trifluoromethyl)-2,3-dihydro-1H-isoindol-1-one], the fold induction at 1 µM in assay [1] (setting [6]) was 0.101 to 0.15; in assay [2] (setting [8]) it was 0.801 to 1; in assay [3] (setting [11]), 2.51 to 5; in assay [5] (setting [14]) it was 1.01 to 1.3. For the same molecule, the results for the fold induction at 8 µM in assay [1] (setting [7]) and in assay [2] (setting [9]) were > 0.201 and > 1, respectively. Also, the fold induction at 0.3 µM in assay [3] (setting [10]) lay within 1.01 to 2.5; in assay [5] (setting [13]), 1.01 to 1.3. Further, the fold induction at 4 µM is > 7.5 in assay [3] (setting [12]) and 1.31 to 1.5 in assay [5] (setting [15]). Besides, in assay [4], the half-inhibitory concentration (IC50) was ≤ 100 nM.

For `CCOc1cc([C@H](C)Cc2nncn2C)cc(N2Cc3c(cccc3C(F)(F)F)C2=O)n1` [Compound 358, (R)-2-(6-ethoxy-4-(1-(4-methyl-4H-1,2,4-triazol-3-yl)propan-2-yl)pyridin-2-yl)-4-(trifluoromethyl)isoindolin-1-one], the fold induction at 1 µM in assay [1] (setting [6]) is 0.151 to 0.2; in assay [2] (setting [8]), > 1; in assay [3] (setting [11]), 5 to 7.5; in assay [5] (setting [14]) it was 1.31 to 1.5. In addition, the fold induction at 8 µM in assay [1] (setting [7]) was > 0.201; in assay [2] (setting [9]), > 1. The fold induction at 0.3 µM in assay [3] (setting [10]) is 2.51 to 5; in assay [5] (setting [13]) it was 1.01 to 1.3. The fold induction at 4 µM is > 7.5 in assay [3] (setting [12]) and 1.31 to 1.5 in assay [5] (setting [15]). Also, in assay [4], the IC50 was ≤ 100 nM.

With `CCNc1cc([C@H](C)Cc2nncn2C)cc(N2Cc3c(cccc3C(F)(F)F)C2=O)n1` [Compound 360, (R)-2-(6-(ethylamino)-4-(1-(4-methyl-4H-1,2,4-triazol-3-yl)propan-2-yl)pyridin-2-yl)-4-(trifluoromethyl)isoindolin-1-one], the fold induction at 1 µM in assay [1] (setting [6]) was > 0.201; in assay [2] (setting [8]) it was > 1; in assay [3] (setting [11]), > 7.5; in assay [5] (setting [14]), 1.51 to 1.75. Moreover, the figures for the fold induction at 8 µM in assay [1] (setting [7]) and in assay [2] (setting [9]) were > 0.201 and > 1, respectively. Also, the fold induction at 0.3 µM in assay [3] (setting [10]) was 2.51 to 5; in assay [5] (setting [13]) it was 1.31 to 1.5. Further, the fold induction at 4 µM in assay [3] (setting [12]) was > 7.5; in assay [5] (setting [15]) it was 1.51 to 1.75. The IC50 in assay [4] is ≤ 100 nM.

Consider `CNc1cc([C@H](C)Cc2nncn2C)cc(N2Cc3c(cccc3C(F)(F)F)C2=O)n1` [Compound 363, (R)-2-(4-(1-(4-methyl-4H-1,2,4-triazol-3-yl)propan-2-yl)-6-(methylamino)pyridin-2-yl)-4-(trifluoromethyl)isoindolin-1-one], for which the fold induction at 1 µM in assay [1] (setting [6]) was 0.051 to 0.1; in assay [2] (setting [8]) it was 0.601 to 0.8; in assay [3] (setting [11]), 1.01 to 2.5; in assay [5] (setting [14]), 1.01 to 1.3. The results for the fold induction at 8 µM in assay [1] (setting [7]) and in assay [2] (setting [9]) were 0.151 to 0.2 and > 1, respectively. Moreover, the fold induction at 0.3 µM in assay [3] (setting [10]) lay in the range of 1.01 to 2.5; in assay [5] (setting [13]) it was 1.01 to 1.3. The values for the fold induction at 4 µM in assay [3] (setting [12]) and in assay [5] (setting [15]) were 5 to 7.5 and 1.31 to 1.5, respectively. In addition, in assay [4], the IC50 was ≤ 100 nM.

In the case of `CN1CC2CCC(C1)N2c1cc2c(c(C(F)(F)F)c1)CN(c1cccc(C3(Cc4nncn4C)COC3)c1)C2=O` [Compound 386, 2-(3-(3-((4-Methyl-4H-1,2,4-triazol-3-yl)methyl)oxetan-3-yl)phenyl)-6-(3-methyl-3,8-diazabicyclo[3.2.1]octan-8-yl)-4-(trifluoromethyl)isoindolin-1-one], the fold induction at 1 µM is > 0.201 in assay [1] (Homo sapiens, read-out: IL-2 secretion, Anti-CD3 stimulation, fold change over baseline); > 1 in assay [2] (Homo sapiens, read-out: CD25 staining, Anti-CD3 stimulation, fold change over baseline); > 7.5 in assay [3] (setting [16]); 1.31 to 1.5 in assay [5] (setting [17]). Moreover, the fold induction at 0.3 µM was > 7.5 in assay [3] (setting [16]) and 1.31 to 1.5 in assay [5] (setting [17]). In addition, the IC50 in assay [4] was ≤ 100 nM.

Consider `C[C@H](c1cc2c(c(C(F)(F)F)c1)CN(c1cccc(C3(C(F)(F)c4nncn4C)COC3)c1)C2=O)N1CC[C@H](F)C1` [Example 571, 2-(3-(3-(difluoro(4-methyl-4H-1,2,4-triazol-3-yl)methyl)oxetan-3-yl)phenyl)-6-((R)-1-((S)-3-fluoropyrrolidin-1-yl)ethyl)-4-(trifluoromethyl)isoindolin-1-one], for which the fold induction at 1 µM is > 0.201 in assay [1] (setting [18]), > 1 in assay [2] (setting [19]), > 7.5 in assay [3] (setting [21]) and > 1.76 in assay [5] (setting [23]). Besides, the fold induction at 0.3 µM in assay [3] (setting [20]) is > 7.5; in assay [5] (setting [22]), > 1.76. Also, in assay [4], the IC50 is ≤ 100 nM.

Turning to `C[C@H](c1cc2c(c(C(F)(F)F)c1)CN(c1cccc(C3([C@@H](F)c4nncn4C)COC3)c1)C2=O)N1CCC2(CC2)C1` [Example 576, 6-((R)-1-(5-azaspiro[2.4]heptan-5-yl)ethyl)-2-(3-(3-((R)-fluoro(4-methyl-4H-1,2,4-triazol-3-yl)methyl)oxetan-3-yl)phenyl)-4-(trifluoromethyl)isoindolin-1-one], the fold induction at 1 µM in assay [1] (setting [18]) is > 0.201; in assay [2] (setting [19]) it was > 1; in assay [3] (setting [21]) it was > 7.5; in assay [5] (setting [23]), > 1.76. Further, the fold induction at 0.3 µM in assay [3] (setting [20]) is > 7.5; in assay [5] (setting [22]), > 1.76. The IC50 in assay [4] is ≤ 100 nM.

Consider `Cn1cnnc1CC1(c2cccc(N3Cc4c(cc(CN5CCC(C)(F)CC5)cc4C(F)(F)F)C3=O)c2)COC1` [Example 620, 6-((4-fluoro-4-methylpiperidin-1-yl)methyl)-2-(3-(3-((4-methyl-4H-1,2,4-triazol-3-yl)methyl)oxetan-3-yl)phenyl)-4-(trifluoromethyl)isoindolin-1-one], for which the fold induction at 1 µM in assay [1] (setting [18]) was > 0.201; in assay [2] (setting [19]), > 1; in assay [3] (setting [21]), > 7.5; in assay [5] (setting [23]) it was 1.31 to 1.5. In addition, the fold induction at 0.3 µM is > 7.5 in assay [3] (setting [20]) and 1.31 to 1.5 in assay [5] (setting [22]). Also, in assay [4], the IC50 was ≤ 100 nM.

`C[C@@H]1CN(Cc2cc3c(c(C(F)(F)F)c2)CN(c2cccc(C4(Cc5nncn5C)COC4)c2)C3=O)CCO1` [Example 663b, (R)-2-(3-(3-((4-methyl-4H-1,2,4-triazol-3-yl)methyl)oxetan-3-yl)phenyl)-6-((2-methylmorpholino)methyl)-4-(trifluoromethyl)isoindolin-1-one]: the fold induction at 1 µM in assay [1] (setting [18]) was > 0.201; in assay [2] (setting [19]) it was > 1; in assay [3] (setting [21]), > 7.5; in assay [5] (setting [23]), 1.31 to 1.5. Also, the values for the fold induction at 0.3 µM in assay [3] (setting [20]) and in assay [5] (setting [22]) were > 7.5 and 1.31 to 1.5, respectively. The IC50 in assay [4] was ≤ 100 nM.
